Assay results as given in patent publication US6780418B1, “Reagents and immunoassay for the detection and quantitative determination of mycothiol and precursors thereof” (The Regents of the University of California, priority 1997, dated 2004).

Experiments:
[1] = system: M. smegmatis mc^2155; experiment: Effect of nutrient supplementation upon mycothiol intermediate levels and growth; type: cell-based, Mycobacterium smegmatis
Method: To test whether an increase in cellular Ins content would influence the levels of MSH or potential MSH intermediates, we examined M. smegmatis mc^2155 incubated with Ins. We initially tested Ins uptake by adding 37 μM ^14C-inositol to a culture at A600=1.0 and determining the loss of radiolabel from the medium and its appearance in cells. After 2.5 h, 77% of the counts had been lost from the medium to the cells, showing that M. smegmatis efficiently imports inositol. Next we harvested cells after growth to mid log phase, resuspended them at A600=1.05 in Middlebrook 7H9 media with glucose and 1 MM Ins at 37° C., and took samples for analysis at 0, 0.5 and 2.5 h (FIG. 17A).
To test whether changes in cellular Cys levels would influence MSH or MSH intermediates, we incubated cells in medium containing 10 mM AcCys. Since AcCys is readily taken up by passive diffusion we expected this to produce markedly elevated levels of cellular AcCys and, through deacylation, Cys. […] The Cys-GlcN-Ins content was elevated 20-fold over normal immediately after the start of incubation but then fell a factor of 70 over the next 2.5 h. Least affected was the MSH content which was elevated ˜40% after 2.5 h.

[2] = target: ATP-dependent ligase activity (Mycolicibacterium smegmatis, UniProt A0QZY0); experiment: Assay of ATP-dependent ligase activity with GlcN-Ins plus Cys/AcCys in cell extract supernatant; type: biochemical, M. smegmatis; settings: for MSH content / Cys-GlcN-Ins concentration: 100 μM substrate, 50 μM GlcN-Ins, 1 mM ATP; for Cys-GlcN-Ins concentration: pH 7.5, 60 min
Sequence of ATP-dependent ligase activity (A0QZY0 whole entry): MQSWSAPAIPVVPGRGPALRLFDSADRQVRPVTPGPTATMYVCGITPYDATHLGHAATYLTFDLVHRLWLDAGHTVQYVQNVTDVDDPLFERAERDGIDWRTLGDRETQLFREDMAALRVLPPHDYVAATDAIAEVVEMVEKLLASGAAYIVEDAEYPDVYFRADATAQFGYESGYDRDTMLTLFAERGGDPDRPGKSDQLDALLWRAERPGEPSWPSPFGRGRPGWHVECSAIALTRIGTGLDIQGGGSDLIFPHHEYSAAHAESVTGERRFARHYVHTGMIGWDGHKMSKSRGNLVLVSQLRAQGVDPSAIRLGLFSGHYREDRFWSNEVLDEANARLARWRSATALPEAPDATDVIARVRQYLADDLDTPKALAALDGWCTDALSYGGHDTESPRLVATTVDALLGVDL

[3] = system: anti-mycothiol antibody; experiment: ELISA of Example 4: thiol bound to maleimide-activated BSA, detected with affinity-purified anti-MSH antibody; type: binding, rabbit; settings: for ELISA result (recognition by the anti-mycothiol antibody): thiol at the 10 pmol level
Method: Known amounts of pure MSH (typically from 0 to 1 pmol/well) were reacted with maleimide-activated BSA (Pierce); maleimide activation levels were 16-19 mol maleimide per mol BSA. The maleimide-activated BSA was reconstituted to 10 mg/ml and this stock solution stored at −70° C. until needed. The stock solution was diluted to a working concentration of 5 ng/μl just before use and kept chilled on ice. MSH from the concentrated stock solution in 0.1% TFA was diluted into TBS (Tris-buffered saline: 0.1 M Tris, pH 7.3, 0.15 M NaCl, 0.04% NaN3) on ice and the diluted samples (40 μl per well) immediately added to the maleimide-activated BSA (60 μl per well). A “zero” standard consisted of TBS in place of an MSH solution. In practice, 168 μl of thiol standard were added to 252 μl of maleimide-activated BSA solution. Samples of unknown thiol content were reacted with maleimide-activated BSA in the same manner, providing a small excess volume for pipetting of quadruplicate samples of 100 μl per well. After 2-hour incubation at room temperature, the thiol-BSA samples were aliquoted (100 μl per well) into Immulon-4 microplate wells and allowed to bind overnight at 4° C. Unbound protein was removed by gentle aspiration with mild vacuum and the wells blocked for 2 hours at room temperature with 1% v/v fish-skin gelatin in TBS. The wells were drained, washed once with TBST (TBS plus 0.05% Tween-20), and drained. Washes involved filling wells to the top with wash buffer followed by gentle aspiration to drain the wells. Primary antibody (affinity-purified anti-MSH, 100 μl per well) was added and the plate incubated for 4 hours at room temperature. The wells were drained, washed twice with TBST, and drained. Secondary antibody (goat anti-rabbit [whole IgG] F(ab′)2 fragments conjugated to bovine intestinal alkaline phosphatase, 100 μl per well) was added and the plate incubated for 1 hour at room temperature. The wells were drained, washed twice with TBST, twice with TBS, and drained. The alkaline phosphatase substrate (3.8 mM p-nitrophenylphosphate in 0.2 M Tris, pH 9.8, 200 μl per well) was added and the plate incubated 30 minutes at room temperature. The reaction was quenched by addition of 50 μl per well stop solution (4 N NaOH). The plate was read at 405 nm on a microplate reader (Model EL311, Bio-Tek Instruments) that was programmed to automatically subtract blank values read from wells that received only the blocking agent, wash solutions, p-nitrophenyl phosphate, and stop solution.
Since reaction of typical cellular constituents with maleimide-BSA is largely limited to thiols, it was considered important to ascertain whether any typical biological thiols would produce false-positive assay results.
In order to test whether the anti-mycothiol antibody recognizes component parts of the mycothiol molecule we also tested the ELISA on N-acetyl-L-cysteine, L-cysteinyl-glucosamine, (2-L-cysteinyl)amido-2-deoxy-α-D-glucopyranose), and N-acetyl-L-cysteinyl-glucosamine (2-N-acetyl-L-cysteinyl)amido-2-deoxy-α-D-glucopyranose).

[4] = type: physicochemical
Method: The crude extract was purified by reversed-phase HPLC on a preparative C 18 column, 25 mm×250 mm (Vydac) by isocratic elution with 0.1% trifluoracetic acid (TFA) in ultrapure water at a flow rate of 10 ml/min. Under these conditions MSH eluted as the free thiol at 8 minutes and as its disulfide (MSSM) at 12 minutes. Thiol concentration was determined by titration with DTNB. Purified MSH was stored as a concentrated (0.11 M) stock solution in 0.1% TFA (aqueous), frozen at −70° C.
To produce biotinylated MSH suitable for use as a standard, the following procedure was carried out: 5.0 μL of 3.7 mM pure MSH in 0.1% TFA was added to 12.3 μL 1.5 mM MPB in DMSO/acetonitrile/100 mM phosphate buffer, pH 7.0 (1:4:5). The mixture was allowed to react 1 hour at room temperature. To determine the extent of biotinylation, unreacted MSH was measured by titration with DTNB. The standard was stored in 1.0 μL aliquots frozen at −70° C. For use in ELISA analyses, the standard was diluted to a concentration of 1.0 μM in Tris-buffered saline, pH 7.3, containing 0.04% w/v sodium azide, 0.05% v/v Tween 20 and 0.1% w/v BSA (TBSTB); this solution was stable for several (>6) months when stored refrigerated as indicated by consistency of ELISA measurements.

For `CC(=O)N[C@@H](CS)C(=O)O` [AcCys, N-acetyl-cysteine], the effect on growth ([1]; 10 mM AcCys, 2.5 h) was “significantly inhibits growth”, the MSH content elevated ([1]; 10 mM AcCys, after 2.5 h) was roughly 40% and the “Cys-GlcN-Ins content elevated over normal” value ([1]; 10 mM AcCys, immediately after the start of incubation) was 20 fold. The “change of A600 value” ([1]; 10 mM AcCys, over the 2.5 h incubation period) was 5%, the “fall of Cys-GlcN-Ins content (factor)” value ([1]; 10 mM AcCys, over the next 2.5 h) was 70 and the Cys level increased ([1]; medium containing 10 mM AcCys) was 50 fold. The H2S level ([1]; medium containing 10 mM AcCys) was “roughly doubled”, the “cellular AcCys level elevated over the normal level” value ([1]; medium containing 10 mM AcCys) was 1000 fold and the “decrease in GlcN-Ins content” value ([1]; medium containing 10 mM AcCys) was 5- to 10 fold. The “[Cys]/[AcCys]” value ([2]; 100 μM AcCys, by 60 min) was roughly 3, the MSH content ([2]; 60 min) was 15 µM and the Cys-GlcN-Ins concentration [2] was 20 µM. For the same compound, the “ELISA result (recognition by the anti-mycothiol antibody)” value (“ELISA result” below) [3] was “negative”.
For `CC(=O)N[C@@H](CS)C(=O)N[C@@H]1[C@@H](O)[C@H](O)[C@@H](CO)O[C@@H]1O` [AcCys-GlcN, 2-(N-acetyl-L-cysteinyl)amido-2-deoxy-α-d-glucopyranoside], the “sensitivity of the assay relative to that for MSH” value ([3]; of that for MSH) was “about 4%” and the “ELISA result” value [3] was “positive”.
Compound `N[C@@H](CS)C(=O)O` [Cys, L-cysteine] has an MSH content ([2]; 0 min) of 15 µM, an MSH content ([2]; 60 min) of 13 µM and a Cys-GlcN-Ins concentration [2] of 26 µM. For the same compound, the “ELISA result” value [3] was “negative”.
With `N[C@@H](CS)C(=O)N[C@@H]1[C@@H](O)[C@H](O)[C@@H](CO)O[C@@H]1O` [Cys-GlcN, 2-(L-cysteinyl)amido-2-deoxy-α-D-glucopyranoside] the “ELISA result” value [3] was “negative”.
For `O[C@H]1[C@H](O)[C@@H](O)[C@H](O)[C@@H](O)[C@H]1O` [Ins, myo-inositol], the “MSH and H2S levels” value ([1]; 1 mM Ins, 37° C., 0 to 2.5 h) was “did not change to a significant extent”, the “GlcN-Ins content relative to normal” value ([1]; 1 mM Ins, 37° C., at 0.5 h) was “about half normal” and the “GlcN-Ins content relative to normal” value ([1]; 1 mM Ins, 37° C., at 2.5 h) was “returning to normal”. The “GlcN-Ins content relative to normal” value ([1]; 1 mM Ins, 37° C., initially (0 h)) was “more than 3 fold” and the “increase of A600 value” ([1]; 1 mM Ins, over the 2.5 h incubation) was 40%.
With `CC(=O)N[C@@H](CS)C(=O)N[C@H]1[C@@H](OC2[C@H](O)[C@H](O)C(O)[C@H](O)[C@H]2O)O[C@H](CO)[C@@H](O)[C@@H]1O` (stereo partly drawn) [MSH, 1-D-myo-inosityl-2-(N-acetyl-L-cysteinyl)amido-2-deoxy-α-D-glucopyranoside] the stability on storage [4] was “stable as the free thiol for many months”.
For `CC(C)(COP(=O)(O)OP(=O)(O)OC[C@H]1O[C@@H](n2cnc3c(N)ncnc32)[C@H](O)[C@@H]1OP(=O)(O)O)[C@@H](O)C(=O)NCCC(=O)NCCS` [coenzyme A, reference compound], the “ELISA result” value [3] was “negative”.
In the case of `N[C@@H](CCC(=O)N[C@@H](CS)C(=O)NCC(=O)O)C(=O)O` [glutathione, reference compound], the “ELISA result” value [3] is reported as “negative”.
In the case of `CC(C)(CO)[C@@H](O)C(=O)NCCC(=O)NCCS` [pantetheine, reference compound], the “ELISA result” value [3] is reported as “negative”.
With ^14C-inositol [reference compound] the “counts lost from the medium to the cells (uptake)” value ([1]; 37 μM, culture at A600=1.0, after 2.5 h) was 77%.
